Experimental data: patent US20040141944A1, “Inhibition of xenoreactive antibodies” (priority 1998, published 2004)

How the values were obtained:
Purified CD19+B cells = test: effect of TPC on T cell-independent anti-Gal B cell activation (ELISPOT); type: cell-based; settings: TPC (410S) 1 mg/mL pretreatment 30 min or 50 ug/mL daily; 5 day culture with SAC, IL-2, IL-4, anti-CD40
Protocol: To each well of the first 10 columns of a sterile hydrazine modified polystyrene 96-well plate (Corning Costar, Cambridge, Mass.), 100 μL per well of a solution containing 3.2 mg/mL αGal(1,3)Gal β 1-4 GlcNAc, 3.1 mg/mL EDC and 2.4 mg/mL NHS were added in a darkened cold room and the reaction proceeded for four hours. After careful washing with sterile H2O, the plates were completely covered with plastic strips and stored at 4° C. until use. Plates were blocked with sterile 400 ul/well of PBS/1% HSA for 2 hours at 37° C. Peripheral blood mononuclear cells were isolated by Ficoll-Hypaque (specific gravity, 1.077 g/mL; Pharmacia Fine Chemicals, Piscatawy, N.J.) density gradients at 400 g for 30 min. at 22° C. […] Plates were incubated overnight in the dark at room temperature and single Ab-secreting, spot forming cells (ASC) were visualized, analyzed and counted under low magnification using an inverted phase microscope. Data represents total isotype specific anti-gal Ab-secreting cells/10^6 PBMNCs, calculated from serially diluted cell samples.
Purified CD19+B cells were obtained by positive selection with the use of anti-CD19+ immunomagnetic beads (Pan-B (CD19); Dynal, Lake Success, N.Y.). […] Following the 5 day culture period, cells were washed extensively, counted, viability determined and the number of ASC determined using the anti-Gal ELISPOT assay. […]

[1] = tested on: xenoreactive IgG (X IgG) and xenoreactive IgM (X IgM); test: effect of TPC on xenoreactive antibody levels in cynomolgous monkeys; type: in vivo
Protocol: TPC molecule 410S was prepared as described in Example 5. 410S or PEG control was administered to cynomolgous monkeys in doses of either 50 mg or 250 mg every 3 days for 2 weeks. Blood was drawn for serum before and after each administration. During the subsequent 2 week period, blood was drawn each Monday and Friday. Serum samples were analyzed for xenoreactive IgG (X IgG) and xenoreactive IgM (X IgM).

xenoreactive antibodies = test: TPC treatment with discordant xenotransplant (pig heart) in cynomolgous monkeys; type: in vivo
Protocol: The TPC molecule 410S was prepared as described above in Example 5. Three monkeys received 250 mg TPC (# 19-97, 18-97, 21-97), and two monkeys received 250 mg control vehicle (#28-97, 23-97) every 3 days for 2 weeks (total 6 doses/animal) via IV infusion. 250 mg/5 mL per vial was supplied as sterile solution to be injected into 50 ML sterile physiological saline in an IV bag and administered IV at a rate of approximately 2-3 mLs/min. Prior to administration and 15-60 minutes after administration was complete, 1-3 mLs of blood was drawn for serum from each monkey at a site distant from the site of administration. On the day of the 6th dose, each monkey underwent a heterotopic heart transplant following drug infusion. A heart from a transgenic pig which expresses human CD59 and human CD55 was placed in the abdominal position as described (Byrne, et al., 1997, Transplantation 63:149-155) and remained in place up to 6 hours before being explanted.
Following the transplant and explant, the monkeys continued infusion of either TPC or control vehicle, as above, once per day for 9 days. Blood was drawn for serum analysis before and after each administration. The monkeys were monitored for at least 15 days after cessation of TPC administration, and blood was drawn 2 times per week for serum analysis. One monkey died 2 days post-transplant.

Substance: (αGal(1,3)Gal β 1-4 GlcNAc)4-PEG [Example 410S]
- effect on the number of detectable ASCs (Purified CD19+B cells): no effect
- effect on total cell yield and viability (Purified CD19+B cells): no effect
- effect on anti-Gal IgG levels ([1]; 50 mg and 250 mg doses, compared with the IgM effect): the effect was not as dramatic
- anti-Gal IgM level, % of the initial level ([1]; 50 mg animals, 15 days post-treatment): ~40%
- anti-Gal IgM level, % of the initial level ([1]; 50 mg dose every 3 days, after 6 TPC treatments): approximately 15%
- anti-Gal IgM level, % of the predosing level ([1]; 250 mg animals, 15 days post-treatment): 15%
- anti-Gal IgM level, % of the initial level ([1]; 250 mg dose every 3 days, after 6 TPC treatments): approximately 5%
- xenoreactive antibody levels (xenoreactive antibodies; 250 mg TPC, during the 9 days of TPC administration following explant of the pig heart): maintained low levels
- XNA levels (xenoreactive antibodies; following cessation of TPC): rose, but not as dramatically as in the non-TPC-treated control
